From US20240270821A1, “GIP/GLP1/GCG TRI-RECEPTOR AGONISTS AND USES THEREOF” (priority 2023, published 2024)
pEC50: −log10 of the molar value. Like-named read-outs stand apart in the source and are kept apart here. Starred links: 1 amine or outer side, 2 acyl side, 3 side chain; linkers in the order of their positions; H or OH if unused. Non-standard residues stand in square brackets, D forms with d. Residues, ends and D or L forms follow the SMILES beside them. Groups on a side chain read outwards from the residue. No end group written: not given here. *: point of attachment. C20 diacid = O=C(O)CCCCCCCCCCCCCCCCCCC(=O)*; C18 diacid = O=C(O)CCCCCCCCCCCCCCCCC(=O)*; Phe(4-CN) = N#Cc1ccc(C[C@H](N)C(=O)O)cc1; αMePhe(2-F) = C[C@](N)(Cc1ccccc1F)C(=O)O; γGlu = O=C(O)[C@H](CCC(=O)[*:2])N[*:1]; αMe4Pal = C[C@](N)(Cc1ccncc1)C(=O)O; αMeY = C[C@](N)(Cc1ccc(O)cc1)C(=O)O; 4Pal = N[C@@H](Cc1ccncc1)C(=O)O; αMeL = CC(C)C[C@](C)(N)C(=O)O; αMeS = C[C@](N)(CO)C(=O)O; Orn = NCCC[C@H](N)C(=O)O; AEEA = NCCOCCOCC(=O)O; Aib = CC(C)(N)C(=O)O

How the values were obtained:
Format in all cases: cell-based
hGLP-1R [1] = biological target: T1, hGLP-1R (Homo sapiens, UniProt P43220); test: Functional cAMP activation in the presence of 0.1% casein (no HSA); conditions: read-out: Relative cAMP EC50, hGLP-1R;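 note: intracellular cAMP rise after 30 min at 37 °C read by HTRF, normalized between buffer only (0%) and maximal control ligand (100%), four-parameter variable-slope fit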
T1 sequence (P43220 24-463): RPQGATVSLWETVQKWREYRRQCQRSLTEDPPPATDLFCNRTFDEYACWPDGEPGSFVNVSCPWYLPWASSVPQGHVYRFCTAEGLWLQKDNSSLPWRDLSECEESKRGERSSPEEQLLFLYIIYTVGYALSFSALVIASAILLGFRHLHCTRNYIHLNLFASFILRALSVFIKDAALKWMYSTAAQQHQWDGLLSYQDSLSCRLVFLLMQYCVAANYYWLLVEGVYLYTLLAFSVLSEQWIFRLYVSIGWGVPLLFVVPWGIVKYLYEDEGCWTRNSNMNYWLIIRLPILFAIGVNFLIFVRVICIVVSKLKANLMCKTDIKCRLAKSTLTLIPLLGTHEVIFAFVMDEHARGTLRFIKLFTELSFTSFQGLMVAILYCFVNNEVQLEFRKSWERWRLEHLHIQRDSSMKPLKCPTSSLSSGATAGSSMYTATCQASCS

hGcgR = hGcgR (Homo sapiens, UniProt P47871); test: as above; conditions: read-out: Relative cAMP EC50, hGcgR;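 note: intracellular cAMP rise after 30 min at 37 °C, read by HTRF against a cAMP standard curve, scaled from buffer only (0%) to maximal control ligand response (100%)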
hGcgR, sequence (P47871 26-477): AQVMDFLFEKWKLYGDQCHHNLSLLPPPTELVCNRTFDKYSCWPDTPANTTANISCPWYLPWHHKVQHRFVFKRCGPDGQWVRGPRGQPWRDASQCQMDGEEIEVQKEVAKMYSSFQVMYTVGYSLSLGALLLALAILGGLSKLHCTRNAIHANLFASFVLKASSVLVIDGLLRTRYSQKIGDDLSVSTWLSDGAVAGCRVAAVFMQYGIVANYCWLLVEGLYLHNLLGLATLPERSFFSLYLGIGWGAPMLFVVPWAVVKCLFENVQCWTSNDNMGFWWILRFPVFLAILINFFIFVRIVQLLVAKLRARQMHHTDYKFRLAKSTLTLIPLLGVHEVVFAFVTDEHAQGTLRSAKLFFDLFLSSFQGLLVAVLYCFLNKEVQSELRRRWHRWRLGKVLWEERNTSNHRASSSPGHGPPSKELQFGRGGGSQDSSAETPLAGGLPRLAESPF

human GcgR = human GcgR (Homo sapiens, UniProt P47871); test: Functional cAMP activity in the presence of 1% HSA; conditions: read-out: cAMP Rel EC50, hGcgR
human GcgR, sequence (P47871 26-477): as above

hGIPR [2] = biological target: T2, hGIPR (Homo sapiens, UniProt P48546); test: Functional cAMP activation in the presence of 0.1% casein (no HSA); conditions: read-out: Relative cAMP EC50, hGIPR;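 note: intracellular cAMP rise after 30 min at 37 °C read by HTRF against a standard curve, scaled between buffer alone (0%) and top control ligand concentration (100%), four-parameter fit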
T2 sequence (P48546 22-466): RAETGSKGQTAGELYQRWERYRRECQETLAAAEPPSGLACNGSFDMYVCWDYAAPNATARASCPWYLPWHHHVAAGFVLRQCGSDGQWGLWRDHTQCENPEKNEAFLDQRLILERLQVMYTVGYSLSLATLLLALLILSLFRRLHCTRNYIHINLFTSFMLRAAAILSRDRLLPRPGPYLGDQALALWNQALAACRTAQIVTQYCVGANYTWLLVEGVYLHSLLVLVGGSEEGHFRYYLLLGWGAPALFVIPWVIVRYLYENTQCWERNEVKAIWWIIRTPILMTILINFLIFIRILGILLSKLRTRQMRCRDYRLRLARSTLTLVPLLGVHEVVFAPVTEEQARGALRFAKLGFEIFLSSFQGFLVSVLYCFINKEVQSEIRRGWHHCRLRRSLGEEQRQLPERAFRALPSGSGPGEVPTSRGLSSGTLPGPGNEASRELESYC

hGIPR [3] = biological target: T2, hGIPR; test: Functional cAMP activity in the presence of 1% HSA; conditions: read-out: cAMP Rel EC50, hGIPR
hGLP-1R [4] = biological target: T1, hGLP-1R; test: Functional cAMP activity in the presence of 1% HSA; conditions: read-out: cAMP Rel EC50, hGLP-1R
[5] = in the presence of 0.1% casein (no HSA), geometric mean
[6] = 0.1% casein, no HSA, geometric mean

pEC50 (hGLP-1R [1])	pEC50 (hGcgR)	pEC50 (hGIPR [2])	Compound	pEC50 (hGLP-1R [1]; [5])	pEC50 (hGcgR; [5])	pEC50 (human GcgR)	pEC50 (hGIPR [2]; [5])	pEC50 (hGIPR [3])	pEC50 (hGLP-1R [4])	pEC50 (hGLP-1R [1]; [6])	pEC50 (hGcgR; [6])	pEC50 (hGIPR [2]; [6])
–	–	–	CC[C@H](C)[C@H](NC(=O)[C@H](Cc1ccccc1)NC(=O)[C@H](CCCN)NC(=O)C(C)(C)NC(=O)[C@H](CCC(N)=O)NC(=O)[C@H](C)NC(=O)[C@H](CCCCNC(=O)CC[C@H](NC(=O)CC[C@H](NC(=O)CCCCCCCCCCCCCCCCC(=O)O)C(=O)O)C(=O)O)NC(=O)[C@H](CCCN)NC(=O)[C@H](CC(=O)O)NC(=O)[C@H](CC(C)C)NC(=O)[C@](C)(CC(C)C)NC(=O)[C@@H](NC(=O)[C@H](CO)NC(=O)[C@H](Cc1ccncc1)NC(=O)[C@H](CC(=O)O)NC(=O)[C@H](CO)NC(=O)[C@@H](NC(=O)[C@](C)(Cc1ccccc1F)NC(=O)[C@@H](NC(=O)CNC(=O)[C@H](CCC(N)=O)NC(=O)C(C)(C)NC(=O)[C@@H](N)Cc1ccc(O)cc1)[C@@H](C)O)[C@@H](C)O)[C@@H](C)CC)C(=O)N[C@H](CCC(=O)O)C(=O)N[C@@](C)(Cc1ccc(O)cc1)C(=O)N[C@@H](CC(C)C)C(=O)N[C@@H](CC(C)C)C(=O)N[C@@H](CCC(=O)O)C(=O)NCC(=O)NCC(=O)N1CCC[C@H]1C(=O)N[C@@H](CO)C(=O)N[C@@H](CO)C(=O)NCC(=O)N[C@@H](CCC(=O)O)C(=O)N1CCC[C@H]1C(=O)N1CCC[C@H]1C(=O)N1CCC[C@H]1C(=O)N[C@@H](CCC(=O)O)C(N)=O [Example 372] (H-Y[Aib]QGT[αMePhe(2-F)]TSD[4Pal]SI[αMeL]LD[Orn]K([γGlu-γGlu-C18 diacid])AQ[Aib][Orn]FI[dE][αMeY]LLEGGPSSGEPPPE-NH2)	9.48	8.12	6.33	10.79	8.58	7.27	–	–	–
–	–	–	H-Y[Aib]QGTFTSD[4Pal]SQ[αMeL]LD[Orn]K([dE-γGlu-C18 diacid])AQ[αMe4Pal]AFIE[αMeY]LIE[Aib]GPSSGEPPPSGSEE-NH2 [Example 1103]	8.97	7.95	5.87	10.14	7.71	6.74	–	–	–
9.21	8.27	10.20	Y[Aib]QGT[αMePhe(2-F)]TSD[4Pal][αMeS]I[αMeL]LD[Orn]K([γGlu-γGlu-C18 diacid])AQ[Aib][Orn]FI[dE][αMeY]LQEGGPSSGEPPPEGAEE-NH2 [Example 587]	–	–	6.60	–	8.46	7.50	–	–	–
9.25	8.38	10.06	H-Y[Aib]QGT[αMePhe(2-F)]TSD[4Pal][αMeS]ILLD[Orn]K([γGlu-γGlu-C18 diacid])AQ[Aib][Orn]FI[dE]YLIEGGPSSGEPPPEGTEE-NH2 [Example 556]	–	–	6.44	–	8.26	7.32	–	–	–
8.99	8.23	9.73	H-Y[Aib]QGT[αMePhe(2-F)]TSD[4Pal][αMeS]I[αMeL]LD[Orn]K([γGlu-γGlu-C18 diacid])AQ[Aib][Orn]FI[dE][αMeY]LSEGGPSSGEPPPSGQEE-NH2 [Example 570]	–	–	6.19	–	7.87	7.02	–	–	–
–	–	–	H-Y[Aib]QGT[αMePhe(2-F)]TSD[Phe(4-CN)]SKLLDKIAQK([AEEA-γGlu-C20 diacid])AFIEYLIEGGPSSGAPPPSGS-NH2 [Example 363]	8.83	7.87	5.39	9.43	7.04	6.66	–	–	–
–	–	–	H-Y[Aib]Q[dA]T[αMePhe(2-F)]TSD[4Pal][αMeS]I[αMeL]LD[Orn]K([γGlu-γGlu-C18 diacid])AQ[Aib]EFI[dE][αMeY]LIEGGPSSGAPPPSGGGE-NH2 [Example 1225]	–	–	6.56	–	8.44	7.50	9.40	8.61	10.27
–	–	–	H-Y[Aib]QGT[αMePhe(2-F)]TSDYSILLDKQAQK([AEEA-AEEA-γGlu-C20 diacid])AFIEYLLEGGPSSGEPPPSEG-NH2 [Example 345]	9.18	7.95	5.48	10.42	7.82	6.59	–	–	–
–	–	–	Y[Aib]QGTFTSD[4Pal]SQ[αMeL]LDKK([AEEA-γGlu-C18 diacid])AQ[αMe4Pal]AFIEWLIEGGPSSGAPPPSG[4Pal]-NH2 [Example 832]	8.97	8.04	5.87	9.73	7.73	6.68	–	–	–
–	–	–	H-Y[Aib]QGT[αMePhe(2-F)]TSD[4Pal][αMeS]I[αMeL]LD[Orn]K([AEEA-γGlu-C18 diacid])AQ[αMe4Pal]EFI[dE][αMeY]LVEGGPSSGAPPPESE-NH2 [Example 1156]	9.35	8.53	6.47	10.90	8.88	7.33	–	–	–
–	–	–	H-Y[Aib]QGTFTSD[4Pal]SQ[αMeL]LDKK([AEEA-γGlu-C18 diacid])AQ[αMe4Pal]AFIE[αMe4Pal]LIE[Aib]GPSSGAPPPSGTGE-NH2 [Example 1117]	8.45	8.31	6.45	9.91	8.08	6.63	–	–	–

Compound	pEC50 (hGLP-1R [1])	pEC50 (hGcgR)	pEC50 (hGIPR [2])	pEC50 (hGLP-1R [1]; [5])	pEC50 (hGcgR; [5])	pEC50 (human GcgR)	pEC50 (hGIPR [2]; [5])	pEC50 (hGIPR [3])	pEC50 (hGLP-1R [4])	pEC50 (hGLP-1R [1]; [6])	pEC50 (hGcgR; [6])	pEC50 (hGIPR [2]; [6])
H-Y[Aib]QGT[αMePhe(2-F)]TSD[4Pal]SI[αMeL]LD[Orn]K([γGlu-γGlu-C18 diacid])AQ[αMe4Pal]EFI[dE][αMeY]LLEGGPSSGAPPPSGE-NH2 [Example 617]	9.27	8.34	11.07	–	–	6.26	–	9.19	7.17	–	–	–
CC[C@H](C)[C@H](NC(=O)[C@H](CC(C)C)NC(=O)[C@](C)(Cc1ccc(O)cc1)NC(=O)[C@@H](CCC(=O)O)NC(=O)[C@@H](NC(=O)[C@H](Cc1ccccc1)NC(=O)[C@H](CCC(=O)O)NC(=O)C(C)(C)NC(=O)[C@H](C)NC(=O)[C@H](C)NC(=O)[C@H](CCCCNC(=O)COCCOCCNC(=O)CC[C@H](NC(=O)CCCCCCCCCCCCCCCCC(=O)O)C(=O)O)NC(=O)[C@H](CCCN)NC(=O)[C@H](CC(=O)O)NC(=O)[C@H](CC(C)C)NC(=O)[C@](C)(CC(C)C)NC(=O)[C@@H](NC(=O)[C@](C)(CO)NC(=O)[C@H](Cc1ccncc1)NC(=O)[C@H](CC(=O)O)NC(=O)[C@H](CO)NC(=O)[C@@H](NC(=O)[C@](C)(Cc1ccccc1F)NC(=O)[C@@H](NC(=O)CNC(=O)[C@H](CCC(N)=O)NC(=O)C(C)(C)NC(=O)[C@@H](N)Cc1ccc(O)cc1)[C@@H](C)O)[C@@H](C)O)[C@@H](C)CC)[C@@H](C)CC)C(=O)N[C@@H](CCC(=O)O)C(=O)NCC(=O)NCC(=O)N1CCC[C@H]1C(=O)N[C@@H](CO)C(=O)N[C@@H](CO)C(=O)NCC(=O)N[C@@H](C)C(=O)N1CCC[C@H]1C(=O)N1CCC[C@H]1C(=O)N1CCC[C@H]1C(=O)N[C@@H](CO)C(=O)NCC(=O)N[C@H](C(=O)NCC(=O)N[C@@H](CCC(=O)O)C(N)=O)[C@@H](C)O [Example 689]	9.67	8.74	10.98	–	–	6.74	–	9.02	7.60	–	–	–
